# From US20080292571A1, “Deodorant composition with monocyclic, unsaturated sequiterpene alcohols and glyceryl monoalkyl ethers as synergistic active deodorant agents” (priority 2007, published 2008)
# Experiments:
# Staphylococcus = test: Anti-microbial test: microorganisms inoculated into gel formula, survivors counted; format: cell-based
# Protocol: The antimicrobially synergistically effect of alpha Bisabolol (Natural) for glyceryl monoalkyl ether was studied and the results are summarized in Tables 15 and 16, below. […] Subsequently the steareth-100, sodium stearate, and stearyl alcohol were added and the mixture cooled. […] The final compositions were then poured into containers and cooled to room temperature. […] Therefore following formula is gel type. Inoculate test microorganisms to provide a suspension containing from […] microorganisms/ml and after 1 hr, 5 hr and 24 hr, check the surviving microorganisms by incubating in the soybean-casein digest agar for 24 hours at 32.5° C. the results are summarized below.
# [1] = 0.3% by weight ethylhexylglycerin in ethanol base deodorant vs 0.1% by weight triclosan; cited from earlier work
# [2] = test system: odor-causing gram positive bacteria; details: as reported in U.S. Pat. No. 5,736,574; cited from earlier work
# [3] = cited from earlier work
Structure (SMILES),"anti-microbial activity (in words) (Staphylococcus; 0.2% by weight, with no ethylhexylglycerin)",effect on the anti-microbial activity of ethylhexylglycerin (Staphylococcus; alpha Bisabolol (Natural) combined with ethylhexylglycerin),deodorant effectiveness compared with triclosan [1],anti-microbial activity against odor-causing gram positive bacteria [2],stability ([3]; e.g. against hydrolysis and elevated temperatures),"solubility in fats and organic solvents ([3]; fats and organic solvents like alcohols, glycols and glycol ethers)",solubility in water ([3]; water) [%]
"CC(C)=CCC[C@](C)(O)[C@@H]1CC=C(C)CC1 [alpha Bisabolol (Natural), alpha-Bisabolol]",no anti-microbial activity,synergistic effect,,,,,
"CCCCC(CC)COCC(O)CO (stereo not shown) [ethylhexylglycerin, Ethylhexylglycerin]",,,just as effective as 0.1% by weight triclosan,very low,rather stable,completely soluble,0.2
